Consider 20 compounds from PMC11784839, “Monoaminergic neurotransmitters are bimodal effectors of tau aggregation” (Science Advances, 2025).

Entries after “also recorded” stand apart in the source; their conditions may differ. Like-named read-outs stand apart in the source and are kept apart here.

Test [1] concerns the target T1, tau (Homo sapiens, UniProt P10636). Briefly: MCE Phenols Library screening, tau biosensor cell seeding assay (AvZ). The class given is cell-based. Conditions: for AvZ (average z score of seeding, SDs from the mean level of seeding): 10 μM phenol in cell cultures, AD brain homogenate preincubated 16 hours, two biological replicates, positive = catalyzes seeding, negative = inhibits; for Z repl 1 / Z Repl 2: Z score; for Z repl 1 / raw data 1: replicate 1; for Z Repl 2 / raw data 2: replicate 2; for raw data 1 / raw data 2: puncta; for av Z: average Z score of the two replicates, tau seeding.
Target sequence in this assay (P10636 623-695 limits assumed): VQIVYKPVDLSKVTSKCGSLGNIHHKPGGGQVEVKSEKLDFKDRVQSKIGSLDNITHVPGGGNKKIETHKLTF

In test [2] the target is T1, tau. Briefly: Tau biosensor dose titrations (HEK293T tau biosensor cells seeded with AD brain homogenate).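 On all read-outs here: AD brain homogenate preincubated 16 h with compound, then transfected into tau biosensor cells, seeding read as tau puncta counted by imaging, normalized to cell confluence.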 The class given is cell-based. Conditions: for effect on seeding at 10 μM: 10 μM final concentration on cells; for effect on seeding at 10 μM / effect on seeding at 50 μM: AD brain homogenate seed; for effect on seeding, concentrations ranging from 10 to 100 μM: AD brain homogenate seed (Fig. 2A); for dose-dependent effect of NT on tau seeding: AD brain homogenate pretreated with indicated amounts of NT (Fig. 3A); for effect on seeding, extended dose series: NT concentrations tested from 25 nM to 100 µM (fig. S6); for effect on seeding at 50 μM: 50 μM final concentration on cells.

Test [3] deals with tau fibrils purified from AD brain (Homo sapiens, UniProt P10636). As to the kind of experiment: Quantitative electron microscopy (qEM) of fibril disaggregation. The class given is biochemical. As to conditions: 75 μM; for effect on tau fibril load (qEM): 24-hour treatment, vs no inhibitor control; for reduction of tau fibril counts: preincubated 24 hours, N = 96 images.
Chain of tau fibrils purified from AD brain (P10636 623-695 limits assumed): as above
The test system of a further test is VMAT2. As to conditions: cited from earlier work.
The target in test [4] is T2, P301S 4R1N tau fused with YFP (Homo sapiens, UniProt P10636, P618S). Briefly: cell-based.
T2 sequence (P10636 1-412 isoform P10636-7 P272S): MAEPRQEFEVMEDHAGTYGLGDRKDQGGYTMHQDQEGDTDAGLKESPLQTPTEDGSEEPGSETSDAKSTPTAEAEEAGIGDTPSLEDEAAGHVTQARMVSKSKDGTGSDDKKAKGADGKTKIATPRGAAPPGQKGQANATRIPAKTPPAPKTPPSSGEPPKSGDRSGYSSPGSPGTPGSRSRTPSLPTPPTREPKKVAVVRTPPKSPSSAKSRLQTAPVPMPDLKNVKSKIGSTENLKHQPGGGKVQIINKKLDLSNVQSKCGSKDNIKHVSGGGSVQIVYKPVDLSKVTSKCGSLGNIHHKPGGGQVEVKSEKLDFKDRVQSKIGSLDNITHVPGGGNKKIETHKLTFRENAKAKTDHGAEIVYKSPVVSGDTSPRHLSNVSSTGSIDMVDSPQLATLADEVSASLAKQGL
Test [5] addresses T2, P301S 4R1N tau fused with YFP.
Test [6] concerns intracellular DA concentrations. As to conditions: cited from earlier work.
The mark [7] stands for this setting: average puncta of the two replicates.
The mark [8] stands for this setting: AD brain homogenate diluted to […] ptau, read-out: IC50 low tau load.

As to `NC(Cc1ccc(O)c(O)c1)C(=O)O` (racemic) [DL-DOPA], the “AvZ (average z score of seeding, SDs from the mean level of seeding)” value (from here on “AvZ”) on tau [1] is recorded as 1.763. At tau [1] (listed as DL-dopa), the “AvZ” value was determined as 1.76. Also, on tau [2], the “effect on seeding at 10 μM” value is given as “seeding catalyst; also recorded: catalyzed” and the “effect on seeding, concentrations ranging from 10 to 100 μM” value is “dose-dependent inhibitor at higher concentrations”.
As to `NC(Cc1cccc(O)c1)C(=O)O` (racemic) [DL-m-Tyrosine], on tau [1], the “AvZ” value came out at 1.911; the “Z repl 1” value is on record as 1.84; the “Z Repl 2” value came to 1.982; the “raw data 1” value was found to be 48433.9. The “raw data 2” value on tau [1] came out at 33932.7. The same compound came in with an av puncta on tau [1] (average of raw data 1 and 2) of 41183.3. Moreover, the “effect on seeding, concentrations ranging from 10 to 100 μM” value at tau [2] is on record as “catalyzed seeding independently of dose at all concentrations tested”.
For the compound `O=C(O)Cc1c[nH]c2ccc(O)cc12` [5-Hydroxyindole-3-acetic acid], at tau [1], the “AvZ” value was -0.466; the “Z repl 1” value is -0.16; the “Z Repl 2” value was -0.771; the “raw data 1” value is 24430.2. Further, the “raw data 2” value on tau [1] stood at 4529.6. At tau [1] (setting [7]), the av puncta is 14479.9. At tau [2], the “dose-dependent effect of NT on tau seeding” value (“dose-dependent effect of NT” below) is “inhibited tau seeding at levels comparable to EP”.
Broadly, the IC50 is the concentration needed to halve the response being measured. As for `N[C@H](Cc1ccc(O)c(O)c1)C(=O)O` [D-dopa], the IC50 at tau [2] (setting [8]) worked out at 1.9 µM.
Take `NCCc1ccc(O)c(O)c1` [DA, dopamine, reference compound]: in test [3], the “effect on tau fibril load (qEM)” value is listed as “significantly reduce AD tau fibrils” and the “reduction of tau fibril counts” value is given as “about 50%”. The “affinity for VMAT2 relative to 5-HT” value with VMAT2 was “comparable or slightly lower affinity for VMAT2 than 5-HT”. This compound came in with an IC50 in test [4] of 16.6 µM. At tau [2], the “effect on seeding at 10 μM” value is “inhibited”; the “dose-dependent effect of NT” value was “potently and dose-dependently inhibited tau seeding”. For the same compound, the IC50 at tau [2] (setting [8]) was 3.6 µM. In addition, on tau [2] (AD brain homogenate with ptau […], read-out: IC50 high tau load), the IC50 is 9.8 µM. Besides, the “effect of lower doses on seeding in dopaminergic neurons” value in test [5] (around 1 μM, high tau load) is on record as “catalytic effect on seeding”. Moreover, in test [5] (final concentration 50 μM on cells), the “effect on seeding in dopaminergic neurons at 50 μM” value was “inhibited seeding”.
Turning to `O=C(O)Cc1ccc(O)c(O)c1` [DOPAC, 3,4-dihydroxyphenylacetic acid], the “dose-dependent effect of NT” value on tau [2] is “inhibited seeding with effects similar to DA”.
On the same count and under the same terms, the same measure for `CNC[C@H](O)c1ccc(O)c(O)c1` [EP, epinephrine, reference compound]: “inhibited seeding with the next greatest efficacy”.
Consider `NCCCC(=O)O` [GABA, γ-aminobutyric acid], for which, on tau [2], the “dose-dependent effect of NT” value is recorded as “no significant inhibitory effects on tau seeding” and the “effect on seeding, extended dose series” value is “No inhibitory effect”.
For `CC(C)=CCc1c(O)cc2oc3cc(O)c(O)c(CCC(C)(C)O)c3c(=O)c2c1O` [Garcinone C], the “AvZ” value at tau [1] is listed as 3.115. Moreover, on tau [2], the “effect on seeding at 10 μM” value was “catalyzed seeding” and the “effect on seeding at 50 μM” value is “inhibited seeding”.
For `COc1cc(CC(=O)O)ccc1O` [Homovanillic acid], the “effect on tau fibril load (qEM)” value in test [3] (listed as HVA) is recorded as “significant reduction in fibrils, though to a lesser extent”. Besides, on tau [1], the “AvZ” value was -0.054; the “Z repl 1” value is listed as -0.336; the “Z Repl 2” value was 0.228; the “raw data 1” value amounted to 22315.8. In addition, the “raw data 2” value at tau [1] is 15201.8. Further, the “AvZ” value at tau [1] (listed as HVA) is listed as −0.054. For the same compound, at tau [1] (average of raw data 1 and 2), the av puncta is on record as 18758.8.
As to `N[C@@H](Cc1ccc(O)c(O)c1)C(=O)O` [L-dopa], in test [3], the “effect on tau fibril load (qEM)” value is given as “significantly reduce AD tau fibrils” and the “reduction of tau fibril counts” value is listed as roughly 75%. In addition, in test [6], the “increase of intracellular DA concentrations” value is given as roughly 10 fold and the “intracellular DA concentration in neurons treated with levodopa” value is recorded as “up to 17 μM”. Also, at tau [2] (setting [8]), the IC50 came out at 1.9 µM.
Turning to `NC[C@H](O)c1ccc(O)c(O)c1` [NE, norepinephrine, reference compound], the IC50 on tau [2] (AD brain homogenate diluted to 0.11 ng/μl ptau, read-out: IC50 low tau load) was greater than 25 µM.
`CC(=O)OCC[N+](C)(C)C` [acetylcholine]: at tau [2], the “dose-dependent effect of NT” value is “no significant inhibitory effects on tau seeding” and the “effect on seeding, extended dose series” value is “No inhibitory effect”.
Regarding `Nc1ncnc2c1ncn2[C@@H]1O[C@H](CO)[C@@H](O)[C@H]1O` [adenosine, reference compound], the “dose-dependent effect of NT” value at tau [2] was “no significant inhibitory effects on tau seeding; also recorded: dose-dependently catalyzed tau seeding”.
For `COc1c(O)cc2oc3cc(O)c(CC=C(C)C)c(O)c3c(=O)c2c1CCC(C)(C)O` [garcinone D], on tau [1], the “av Z” value is 0.598. At tau [2], the “effect on seeding at 10 μM” value was “catalyzed seeding” and the “effect on seeding at 50 μM” value is reported as “inhibited seeding”.
`N[C@@H](CCC(=O)O)C(=O)O` [glutamate]: on tau [2], the “dose-dependent effect of NT” value is “no significant inhibitory effects on tau seeding” and the “effect on seeding, extended dose series” value is given as “No inhibitory effect”.
Consider `COc1ccc(-c2cc(=O)c3c(O)cc(O)c(-c4cc(-c5cc(=O)c6c(O)cc(OC)cc6o5)ccc4OC)c3o2)cc1` [sciadopitysin], for which, on tau [1], the “Z repl 1” value worked out at 0.092, the “Z Repl 2” value is on record as 0.543, the “av Z” value came out at 0.317 and the “raw data 1” value is recorded as 27448.5. On tau [1], the “raw data 2” value turned out to be 18561.5. The compound further returned an av puncta at tau [1] (average of raw data 1 and 2) of 23005. On tau [2], the “effect on seeding at 10 μM” value is “catalyzed seeding” and the “effect on seeding at 50 μM” value is reported as “inhibited seeding”.
Broadly, the Kd is the free concentration of one partner at which half of the binding sites on the other are occupied at equilibrium, for simple one-to-one binding. As for `NCCc1c[nH]c2ccc(O)cc12` [serotonin, 5-hydroxytryptamine], the Kd at VMAT2 (read-out: dissociation constant (Kd) for VMAT2) was 3.3 µM. In addition, the “dose-dependent effect of NT” value on tau [2] is recorded as “no significant inhibitory effects on tau seeding”.
Turning to Thymopentin [reference compound], at tau [1], the “AvZ” value is listed as -0.682; the “Z repl 1” value is -1.145; the “Z Repl 2” value is recorded as -0.22; the “raw data 1” value is 12607.7. The “raw data 2” value on tau [1] worked out at 10414. The av puncta at tau [1] (setting [7]) turned out to be 11510.9.
For Tubuloside A, at tau [1], the “Z repl 1” value turned out to be 0.218, the “Z Repl 2” value stood at 0.274, the “raw data 1” value is given as 28967.6 and the “raw data 2” value turned out to be 15687.1. Also, the av puncta on tau [1] (average of raw data 1 and 2) was 22327.4.
